Key:
[1] = system: Rat pancreatic epithelial (ARIP) cells; experiment: Apoptosis by FACS analysis using Annexin V staining; type: cell-based; settings: 15 nM GLP-1, 1 μM staurosporine 4 hrs
Source text: Annexin V staining is a useful tool in detecting apoptotic cells and is well known to those of skill in the art. Binding of Annexin V to the cell membrane, allows for the analysis of changes in […] (PS) asymmetry before morphological changes associated with apoptosis occurred and before membrane integrity is lost.

[2] = system: Rat pancreatic epithelial (ARIP) cells; experiment: Staurosporine-induced cell death in ARIP cells (Cell Titer-Glo); type: cell-based; settings: GLP-1 up to 10 nM, 5 μM staurosporine […]
Experimental: Cell viability was evaluated using Cell Titer-Glo™ (Promega, Madison, Wis.).
The formulations were analyzed for their ability to inhibit staurosporine-induced cell death in ARIP cells.
All of the results shown are averages of triplicate runs.

β-cell mass = experiment: Effect on β-cell mass, cells treated at day 1, 3 and 5; type: cell-based; settings: cells treated with GLP-1/FDKP versus untreated cells
DPP-IV = target: T1, DPP-IV (Rattus norvegicus, UniProt P14740); experiment: DPP-IV activity, cleavage of luminescent Gly-Pro substrate in bronchial lung lavage fluid; type: biochemical; settings: aprotinin 1, 2, 3, 4 and 5 TIU/ml
T1 construct: from tissue; host or cells: rat bronchial lung lavage fluid
Experimental: Aprotinin, a naturally occurring serine protease inhibitor, which is known in the art to inhibit protein degradation was added to the samples post collection at 1, 2, 3, 4 and 5 TIU/ml. DPP-IV activity was then measured by detecting the cleavage of a luminescent substrate containing the DPP-IV recognized Gly-Pro sequence. Bronchial lung lavage fluid was incubated with proluminescent substrate for 30 min and cleavage product was detected by luminescence.

T1 sequence (P14740 whole entry): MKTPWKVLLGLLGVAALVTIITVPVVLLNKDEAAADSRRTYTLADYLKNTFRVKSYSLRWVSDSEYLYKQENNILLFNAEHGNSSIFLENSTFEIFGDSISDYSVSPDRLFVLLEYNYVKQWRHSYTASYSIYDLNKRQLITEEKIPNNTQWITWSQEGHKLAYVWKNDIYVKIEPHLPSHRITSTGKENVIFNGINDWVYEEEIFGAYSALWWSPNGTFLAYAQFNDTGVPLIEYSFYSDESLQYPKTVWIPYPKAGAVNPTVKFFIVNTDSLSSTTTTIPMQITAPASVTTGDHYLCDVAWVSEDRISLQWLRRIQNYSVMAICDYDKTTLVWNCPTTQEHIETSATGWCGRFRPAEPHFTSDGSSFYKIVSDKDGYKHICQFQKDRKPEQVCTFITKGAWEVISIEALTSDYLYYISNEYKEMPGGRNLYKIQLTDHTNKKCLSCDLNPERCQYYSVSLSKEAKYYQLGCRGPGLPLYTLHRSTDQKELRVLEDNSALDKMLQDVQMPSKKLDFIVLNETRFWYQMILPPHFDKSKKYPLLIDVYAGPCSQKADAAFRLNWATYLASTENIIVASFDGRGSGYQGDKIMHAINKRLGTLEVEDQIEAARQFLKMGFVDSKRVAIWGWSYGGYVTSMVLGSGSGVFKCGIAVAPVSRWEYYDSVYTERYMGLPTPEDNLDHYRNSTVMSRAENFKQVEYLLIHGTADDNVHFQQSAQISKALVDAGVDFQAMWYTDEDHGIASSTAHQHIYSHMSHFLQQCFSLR

Substance	inhibition of staurosporine induced apoptosis [1]	percent of cell death [2]	increase in β-cell mass (β-cell mass)	inhibition of DPP-IV activity (DPP-IV)
GLP-1	about 40%	decrease in the percent of cell death	up to 2 fold	
aprotinin				increase in inhibition of DPP-IV activity

From patent publication US20080260838A1 (priority 2003, published 2008)
